Experimental findings from ChEMBL document CHEMBL5042504 (J Med Chem, 2022) are described below.

The structures appear in SMILES notation. Calls of active or inactive are those of the source. No cut-off for these calls is given here.

Test [1] deals with T1, Histone deacetylase 8 (Homo sapiens, UniProt Q9BY41).
T1 sequence (Q9BY41 whole entry): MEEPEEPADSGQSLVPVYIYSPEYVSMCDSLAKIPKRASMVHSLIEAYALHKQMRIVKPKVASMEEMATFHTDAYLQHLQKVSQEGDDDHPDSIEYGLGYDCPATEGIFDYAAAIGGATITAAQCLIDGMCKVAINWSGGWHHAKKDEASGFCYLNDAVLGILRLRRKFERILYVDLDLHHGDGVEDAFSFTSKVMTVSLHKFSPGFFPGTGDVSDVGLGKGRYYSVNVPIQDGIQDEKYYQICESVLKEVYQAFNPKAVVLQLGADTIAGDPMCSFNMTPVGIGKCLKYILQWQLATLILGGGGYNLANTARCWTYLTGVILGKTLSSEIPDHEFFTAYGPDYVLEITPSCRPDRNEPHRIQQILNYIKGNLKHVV
In words: Inhibition of human recombinant HDAC8 using Boc-Lys(triflouroacetyI)-AMC substrate incubated for 2 hrs by fluorescence based assay.

Test [2] concerns the target Histone deacetylase 9 (Homo sapiens, UniProt Q9UKV0). In words: Inhibition of human recombinant HDAC9 using Boc-Lys(triflouroacetyI)-AMC substrate incubated for 2 hrs by fluorescence based assay.
Test [3] relates to U-937. In words: Antiproliferative activity against human U-937 cells assessed as reduction in cell viability after 48 hrs by MTT assay. As to conditions: U-937, 48 h.
Test [4] deals with MV4-11. In words: Up regulation of acetylated histoneH4 in expression in human MV4-11 cells at 100 nM measured after 24 hrs by Western blot analysis. Format: functional, cell-based. Background: In western blotting, separated proteins are transferred to a membrane and probed.
Test [5] concerns MV4-11. In words: Up regulation of acetylated histoneH4 ine expression in human MV4-11 cells at 200 nM measured after 24 hrs by Western blot analysis. Type of test: functional, cell-based.
For test [6], the system named is RS4-11. In words: Antiproliferative activity against human RS4-11 cells assessed as reduction in cell viability measured after 48 hrs by multiplate reader method. As to conditions: RS4-11, 48 h.
In test [7] the target is Histone deacetylase 5 (Homo sapiens, UniProt Q9UQL6). Description: Inhibition of human recombinant HDAC5 using Boc-Lys(triflouroacetyI)-AMC substrate incubated for 2 hrs by fluorescence based assay.
The target in test [8] is T2, Histone deacetylase 11 (Homo sapiens, UniProt Q96DB2).
T2 sequence (Q96DB2 whole entry): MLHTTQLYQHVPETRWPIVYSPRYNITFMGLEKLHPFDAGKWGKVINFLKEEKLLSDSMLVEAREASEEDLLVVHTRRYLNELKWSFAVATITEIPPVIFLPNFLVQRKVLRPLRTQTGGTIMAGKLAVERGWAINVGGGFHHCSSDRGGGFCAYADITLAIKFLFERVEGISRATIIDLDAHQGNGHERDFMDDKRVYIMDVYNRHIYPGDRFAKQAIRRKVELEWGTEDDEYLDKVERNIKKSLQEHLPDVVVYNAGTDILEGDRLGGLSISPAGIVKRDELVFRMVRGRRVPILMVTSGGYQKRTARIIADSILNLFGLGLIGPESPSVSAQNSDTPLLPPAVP
Description: Inhibition of human recombinant HDAC11 using Boc-Lys(triflouroacetyI)-AMC substrate incubated for 2 hrs by fluorescence based assay.

In test [9] the test system is HL-60. In words: Antiproliferative activity against human HL-60 cells assessed as reduction in cell viability after 48 hrs by multiplate reader method. The following applies: HL-60, 48 h.
Test [10] deals with T3, Polyamine deacetylase HDAC10 (Homo sapiens, UniProt Q969S8).
T3 sequence (Q969S8 whole entry): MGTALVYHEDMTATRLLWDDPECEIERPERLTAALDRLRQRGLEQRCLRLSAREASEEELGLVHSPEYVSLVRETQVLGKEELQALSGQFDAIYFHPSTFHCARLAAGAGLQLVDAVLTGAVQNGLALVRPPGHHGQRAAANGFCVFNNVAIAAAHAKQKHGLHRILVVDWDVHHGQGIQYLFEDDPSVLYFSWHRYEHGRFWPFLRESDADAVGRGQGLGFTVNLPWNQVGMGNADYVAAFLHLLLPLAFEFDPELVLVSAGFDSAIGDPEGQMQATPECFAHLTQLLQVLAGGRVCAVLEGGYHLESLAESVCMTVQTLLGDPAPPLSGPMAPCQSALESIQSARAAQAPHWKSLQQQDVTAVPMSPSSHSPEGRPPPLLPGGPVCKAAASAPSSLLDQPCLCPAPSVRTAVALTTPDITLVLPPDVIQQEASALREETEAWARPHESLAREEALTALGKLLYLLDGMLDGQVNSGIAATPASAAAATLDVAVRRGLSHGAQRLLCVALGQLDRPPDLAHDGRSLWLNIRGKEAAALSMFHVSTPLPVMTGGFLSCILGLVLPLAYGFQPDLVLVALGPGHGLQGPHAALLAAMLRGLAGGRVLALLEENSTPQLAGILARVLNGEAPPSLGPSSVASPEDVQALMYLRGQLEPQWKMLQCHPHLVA
In words: Inhibition of human recombinant HDAC10 using Boc-Lys(triflouroacetyI)-AMC substrate incubated for 2 hrs by fluorescence based assay.

Test [11] has as its system MOLM-13. In words: Antiproliferative activity against human MOLM-13 cells assessed as reduction in cell viability measured after 48 hrs by multiplate reader method. The following applies: MOLM-13, 48 h.

Sequence of Histone deacetylase 5 (Q9UQL6 whole entry): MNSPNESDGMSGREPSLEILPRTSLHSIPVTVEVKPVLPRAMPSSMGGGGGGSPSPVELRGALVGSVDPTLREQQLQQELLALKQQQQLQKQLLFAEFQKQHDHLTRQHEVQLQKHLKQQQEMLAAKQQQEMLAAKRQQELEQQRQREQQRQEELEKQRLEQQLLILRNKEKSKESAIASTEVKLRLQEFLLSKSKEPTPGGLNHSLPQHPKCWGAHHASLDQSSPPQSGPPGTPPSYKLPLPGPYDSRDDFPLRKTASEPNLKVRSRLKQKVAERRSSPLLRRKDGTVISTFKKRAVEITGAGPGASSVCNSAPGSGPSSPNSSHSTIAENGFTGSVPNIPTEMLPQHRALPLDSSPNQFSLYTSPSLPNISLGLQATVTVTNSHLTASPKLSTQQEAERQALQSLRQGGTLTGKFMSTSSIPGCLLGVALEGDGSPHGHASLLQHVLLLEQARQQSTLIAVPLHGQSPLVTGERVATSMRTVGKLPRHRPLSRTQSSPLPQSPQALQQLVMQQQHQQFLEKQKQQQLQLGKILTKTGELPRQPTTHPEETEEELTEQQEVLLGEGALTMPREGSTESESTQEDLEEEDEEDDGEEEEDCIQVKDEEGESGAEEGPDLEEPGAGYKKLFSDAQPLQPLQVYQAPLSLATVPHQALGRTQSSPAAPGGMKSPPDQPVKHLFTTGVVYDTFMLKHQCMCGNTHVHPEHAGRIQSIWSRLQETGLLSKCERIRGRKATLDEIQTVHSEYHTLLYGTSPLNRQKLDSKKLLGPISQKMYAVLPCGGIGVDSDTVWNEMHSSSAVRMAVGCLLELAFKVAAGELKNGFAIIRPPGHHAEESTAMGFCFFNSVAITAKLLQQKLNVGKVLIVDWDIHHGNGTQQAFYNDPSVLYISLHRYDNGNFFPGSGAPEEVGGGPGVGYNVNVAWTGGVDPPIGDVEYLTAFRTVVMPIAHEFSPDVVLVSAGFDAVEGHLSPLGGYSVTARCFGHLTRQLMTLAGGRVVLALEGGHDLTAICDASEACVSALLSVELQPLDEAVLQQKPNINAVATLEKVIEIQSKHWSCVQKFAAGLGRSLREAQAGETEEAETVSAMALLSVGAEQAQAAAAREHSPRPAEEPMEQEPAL
Sequence of Histone deacetylase 9 (Q9UKV0 whole entry): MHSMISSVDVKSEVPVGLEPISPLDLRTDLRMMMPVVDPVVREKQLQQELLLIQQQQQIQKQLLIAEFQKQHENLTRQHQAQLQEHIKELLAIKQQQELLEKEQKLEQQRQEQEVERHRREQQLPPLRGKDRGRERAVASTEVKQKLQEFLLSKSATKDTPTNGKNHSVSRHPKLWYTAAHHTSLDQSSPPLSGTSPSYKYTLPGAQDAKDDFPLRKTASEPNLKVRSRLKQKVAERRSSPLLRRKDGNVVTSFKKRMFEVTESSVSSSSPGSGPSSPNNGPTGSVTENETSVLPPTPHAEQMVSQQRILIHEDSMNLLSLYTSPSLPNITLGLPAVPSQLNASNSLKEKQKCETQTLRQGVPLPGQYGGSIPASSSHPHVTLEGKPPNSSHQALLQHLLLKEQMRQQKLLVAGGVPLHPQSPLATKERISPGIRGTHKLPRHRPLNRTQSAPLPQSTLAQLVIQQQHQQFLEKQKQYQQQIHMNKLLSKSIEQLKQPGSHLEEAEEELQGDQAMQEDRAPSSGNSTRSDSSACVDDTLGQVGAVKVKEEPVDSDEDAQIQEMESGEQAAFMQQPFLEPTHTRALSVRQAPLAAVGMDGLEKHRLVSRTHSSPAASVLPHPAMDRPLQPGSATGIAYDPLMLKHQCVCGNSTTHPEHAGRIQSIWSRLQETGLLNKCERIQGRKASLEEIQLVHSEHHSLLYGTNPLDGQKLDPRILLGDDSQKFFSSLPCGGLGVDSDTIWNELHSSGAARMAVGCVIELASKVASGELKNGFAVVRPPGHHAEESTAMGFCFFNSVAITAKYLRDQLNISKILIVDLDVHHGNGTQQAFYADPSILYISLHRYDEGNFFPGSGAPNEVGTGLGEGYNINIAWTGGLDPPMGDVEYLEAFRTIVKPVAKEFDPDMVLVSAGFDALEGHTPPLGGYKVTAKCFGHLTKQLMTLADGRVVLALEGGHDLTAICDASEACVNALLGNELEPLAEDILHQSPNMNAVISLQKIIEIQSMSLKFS

By IC50 is commonly meant the point on the concentration scale where inhibition reaches its midpoint. Turning to `CCCNNC(=O)c1ccc(CNC(=O)/C=C/c2ccccc2)cc1`, the half-maximal inhibitory concentration (IC50) in [1] was greater than 5000 nM; in test [2] it was greater than 5000 nM; in test [3], 161 nM; in test [6] it was 82 nM; in test [7], greater than 5000 nM; in [8] it was greater than 5000 nM. Moreover, the values for the IC50 in test [9], in test [10] and in [11] were 51.7 nM, greater than 5000 nM and 103 nM, respectively. For the same compound, the outcome in test [4] and in test [5] was Active.
Consider `CCCNNC(=O)c1ccc(CNC(=O)c2cc3ccccc3[nH]2)cc1`, for which the half-maximal inhibitory concentration (IC50) in [1] is greater than 5000 nM; in test [2] it was greater than 5000 nM; in [3], 60.5 nM; in test [6] it was 31.5 nM; in test [7], greater than 5000 nM; in test [8], greater than 5000 nM. In addition, the IC50 was 26.2 nM in test [9], greater than 5000 nM in test [10] and 40.4 nM in [11]. For the same compound, the outcome in test [4] and in [5] was Active.
